# Reference: patent US20220023258A1, “METHODS OF TREATING CONDITIONS RELATED TO THE S1P1 RECEPTOR” (Arena Pharmaceuticals, Inc., priority 2018, published 2022)
# Key:
# [1] = system: peripheral blood lymphocyte (PBL) counts; assay: Phase 1 single dose study: peripheral blood lymphocyte counts; assay type: in vivo, human
# Protocol: Compound 1 was administered as the L-arginine salt.
# [2] = system: subjects; assay: Phase 1 single dose study: safety and tolerability
# Protocol: A phase 1 study with Compound 1 was conducted with single dosing at 0.1 mg, 0.35 mg, 1 mg, 3 mg, and 5 mg. Compound 1 was administered as the L-arginine salt.
# [3] = system: male Sprague-Dawley rats; settings: see WO2010/011316, Example 9; cited from earlier work
smiles,measurement,setting,value
"O=C(O)C[C@H]1CCc2c1[nH]c1ccc(OCc3ccc(C4CCCC4)c(C(F)(F)F)c3)cc21 [Compound 1, (R)-2-(7-(4-cyclopentyl-3-(trifluoromethyl)benzyloxy)-1,2,3,4-tetrahydrocyclopenta[b]indol-3-yl)acetic acid]",PBL counts reduced,[1]; single dose 3 mg,~40%
same,PBL counts reduced,[1]; single dose 5 mg,~55%
same,"absolute number of peripheral blood B cells, T cells, NK cells, and all T cell subsets except TEM cells",[1]; single dose 3 and 5 mg,dose responsive decline
same,persistence of PBL nadir,[1]; single dosing,24 h
same,time after dosing by which total PBL counts were reduced,[1]; single dosing,2 to 4 h
same,time of nadir of total PBL counts,[1]; single dosing,≤ 8 h
same,recovery of PBL counts to baseline,"[1]; single dosing, after nadir period",4 days
same,"other safety issues (vital signs, ECGs, pulmonary function tests, ophthalmoscopy, clinical laboratory tests)",[2]; in vivo,no other clinically significant safety issues
same,maximum tolerated dose,[2]; single dosing,3 mg
same,deaths or serious adverse events,[2]; single dosing 0.1-5 mg,no deaths or serious adverse events
same,bradycardia,[3],no or substantially no bradycardia
